The term Kd denotes the free concentration of one partner at which half of the binding sites on the other are occupied at equilibrium, for simple one-to-one binding.

The test deals with T1, ANXA8 (Homo sapiens, UniProt P13928).
T1 construct: commercial recombinant protein (MCE); His tag implied by RED-tris-NTA labelling
T1 sequence (P13928 1-327): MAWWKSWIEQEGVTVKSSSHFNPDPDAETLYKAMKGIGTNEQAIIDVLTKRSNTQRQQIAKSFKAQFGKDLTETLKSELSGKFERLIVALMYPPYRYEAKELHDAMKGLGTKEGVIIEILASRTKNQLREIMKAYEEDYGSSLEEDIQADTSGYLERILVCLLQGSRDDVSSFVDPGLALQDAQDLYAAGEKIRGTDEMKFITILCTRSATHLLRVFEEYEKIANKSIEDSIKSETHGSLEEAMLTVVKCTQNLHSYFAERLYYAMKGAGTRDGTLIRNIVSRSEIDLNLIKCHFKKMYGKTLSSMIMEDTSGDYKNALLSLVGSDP
Briefly: microscale thermophoresis (Monolith NT.[…]), one-site fit. It is filed as binding. (In general: In MST a laser heats a spot of the sample, and binding alters the fluorescence response.)

`CCCCNc1ncc2c(-c3ccc(CN4CCN(C)CC4)cc3)cn([C@H]3CC[C@H](O)CC3)c2n1` [UNC2025] registered a dissociation constant (Kd) of 83.5 nM.

(Values after article PMC12377485, “Targeting the ANXA8–SP1–PPA1 Axis to Modulate TCA Cycle and Matrix Deposition in Diffuse-Type Gastric Cancer” (Research, 2025).)
